From ChEMBL document CHEMBL1201862, “PubChem BioAssay data set” (2004)
Calls of active or inactive are those of the source.

Experiments:
Paired box protein Pax-8 = Paired box protein Pax-8 (Homo sapiens, UniProt Q06710); assay: inhibitors of PAX8-driven TPO luciferase reporter, dose response, RMG-I cells, cherry-pick (AID 687027); format: functional, cell-based;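 note: luciferase reporter driven by Pax8 target thyroperoxidase promoter measured by SteadyGlo luminescence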
[1] = NIH:OVCAR-3 ovarian cancer cell cytotoxicity, dose response, PAX8 inhibitor project, plate reader, dry powder samples (AID 743044); format: functional, cell-based
[2] = IGROV1 ovarian cancer cell cytotoxicity, dose response, PAX8 inhibitor project, plate reader, dry powder samples (AID 743043); format: functional, cell-based; conditions: IGROV-1
Leucine aminopeptidase = biological target: T1, Leucine aminopeptidase (Plasmodium falciparum 3D7, UniProt Q8IL11); assay: P. falciparum M17LAP inhibitors, primary screen, biochemical, fluorogenic H-Leu-NHMec substrate, 1536-well (AID 1619); format: functional
T1 sequence (Q8IL11 whole entry): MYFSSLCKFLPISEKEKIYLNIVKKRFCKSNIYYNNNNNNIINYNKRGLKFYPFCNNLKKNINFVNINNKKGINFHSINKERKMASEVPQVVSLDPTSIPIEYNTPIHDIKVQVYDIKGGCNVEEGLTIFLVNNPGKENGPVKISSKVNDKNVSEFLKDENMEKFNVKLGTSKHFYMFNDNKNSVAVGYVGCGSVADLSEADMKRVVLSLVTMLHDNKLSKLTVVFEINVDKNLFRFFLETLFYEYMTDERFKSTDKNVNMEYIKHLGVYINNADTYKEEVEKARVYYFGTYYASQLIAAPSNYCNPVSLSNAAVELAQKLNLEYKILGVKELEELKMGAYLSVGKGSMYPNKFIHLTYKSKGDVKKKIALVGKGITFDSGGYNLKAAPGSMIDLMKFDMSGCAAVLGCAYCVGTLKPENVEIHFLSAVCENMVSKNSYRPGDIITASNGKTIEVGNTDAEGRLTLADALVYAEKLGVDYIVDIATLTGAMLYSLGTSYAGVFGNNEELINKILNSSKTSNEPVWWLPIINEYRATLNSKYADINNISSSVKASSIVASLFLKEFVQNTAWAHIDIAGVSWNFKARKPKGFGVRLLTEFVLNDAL

cells [3] = format: functional, cell-based
cells [4] = format: functional, cell-based; remark: listed apart in the source
[5] = HEp-2 cell cytotoxicity, dose response, cytotoxicity control for RSV inhibitor project, HTS (AID 2410); format: functional; conditions: human respiratory syncytial virus
[6] = biological target: T2, Corticotropin-releasing factor receptor 2/Corticotropin-releasing factor-binding protein (Homo sapiens, UniProt P24387+Q13324); assay: Dose Response confirmation of uHTS hits for small molecule antagonists of the CRF-binding protein and CRF-R2 receptor complex.; format: functional; conditions: read-out: IC50_Mean
T2 sequence (Q13324 whole entry): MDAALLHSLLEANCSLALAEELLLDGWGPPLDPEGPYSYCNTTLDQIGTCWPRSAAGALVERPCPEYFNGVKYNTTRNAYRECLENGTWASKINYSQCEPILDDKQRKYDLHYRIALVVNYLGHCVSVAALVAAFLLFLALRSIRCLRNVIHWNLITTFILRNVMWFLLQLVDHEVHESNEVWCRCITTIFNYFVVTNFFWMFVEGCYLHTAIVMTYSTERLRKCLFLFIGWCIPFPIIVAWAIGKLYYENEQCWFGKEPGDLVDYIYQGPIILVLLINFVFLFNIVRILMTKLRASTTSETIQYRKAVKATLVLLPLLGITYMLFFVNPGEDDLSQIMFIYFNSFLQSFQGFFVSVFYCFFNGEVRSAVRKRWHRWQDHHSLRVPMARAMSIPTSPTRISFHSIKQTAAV
T2 sequence (P24387 whole entry): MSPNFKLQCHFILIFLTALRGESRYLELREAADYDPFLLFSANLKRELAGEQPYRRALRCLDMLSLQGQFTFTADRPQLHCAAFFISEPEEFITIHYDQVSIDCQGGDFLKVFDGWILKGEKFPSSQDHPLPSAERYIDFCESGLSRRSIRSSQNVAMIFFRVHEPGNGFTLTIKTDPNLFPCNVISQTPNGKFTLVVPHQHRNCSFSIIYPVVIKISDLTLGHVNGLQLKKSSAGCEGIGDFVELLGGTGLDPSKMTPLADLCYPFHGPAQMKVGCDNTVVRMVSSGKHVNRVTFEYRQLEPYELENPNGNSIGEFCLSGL

[7] = biological target: T2, Corticotropin-releasing factor receptor 2/Corticotropin-releasing factor-binding protein; assay: activators of CRF receptor 2 with binding protein – uHTS hits, confirmation (AID 602473); format: functional; conditions: read-out: EC50_Mean
[8] = biological target: T3, Calpain-2 catalytic subunit (Sus scrofa, UniProt P43367); assay: pig calpain II inhibitor potency, dose response, biochemical, fluorogenic peptide substrate (AID 1420); format: functional
T3 sequence (P43367 whole entry): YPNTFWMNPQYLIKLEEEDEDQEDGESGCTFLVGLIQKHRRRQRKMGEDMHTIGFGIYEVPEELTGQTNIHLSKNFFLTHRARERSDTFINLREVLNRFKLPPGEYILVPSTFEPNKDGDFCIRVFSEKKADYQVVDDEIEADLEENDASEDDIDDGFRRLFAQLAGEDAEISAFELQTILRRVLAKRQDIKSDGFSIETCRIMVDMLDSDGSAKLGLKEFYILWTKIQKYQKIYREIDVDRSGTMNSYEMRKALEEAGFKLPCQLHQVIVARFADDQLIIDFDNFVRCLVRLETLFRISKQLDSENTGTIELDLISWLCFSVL

BJ [9] = assay: cytotoxicity toward BJ-TERT fibroblasts, dose response, cell-based, RAS-independent, luminescence (AID 1933); format: functional; conditions: Homo sapiens
BJ [10] = assay: cells; format: functional, cell-based; conditions: Homo sapiens
BJ [11] = assay: cytotoxicity toward BJ-TERT-LT-ST fibroblasts, dose response, cell-based, RAS-independent, luminescence (AID 1935); format: functional; conditions: Homo sapiens;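 note: BJ fibroblasts immortalized with TERT plus LT and ST oncogenes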
[12] = cytotoxicity toward DRD oncogenic fibroblasts, dose response, cell-based, non-viral oncogenic, luminescence (AID 1934); format: functional; conditions: Homo sapiens
Cytochrome P450 2D6 = Cytochrome P450 2D6 (Homo sapiens, UniProt P10635);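 note: CYP2D6 member of a cytochrome P450 panel assay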
Cytochrome P450 2C9 = Cytochrome P450 2C9 (Homo sapiens, UniProt P11712)
Large T antigen = Large T antigen (Simian virus 40, UniProt P03070); format: functional, Betapolyomavirus macacae;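 note: Confirmatory-stage PubChem screen for compounds that inhibit SV40 T antigen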
[13] = biological target: T4, Ubiquitin-conjugating enzyme E2 N (Homo sapiens, UniProt P61088); format: functional;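 note: Dose-response confirmation in a TR-FRET assay detecting UBC13-driven polyubiquitin chain formation, inhibition measured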
T4 sequence (P61088 whole entry): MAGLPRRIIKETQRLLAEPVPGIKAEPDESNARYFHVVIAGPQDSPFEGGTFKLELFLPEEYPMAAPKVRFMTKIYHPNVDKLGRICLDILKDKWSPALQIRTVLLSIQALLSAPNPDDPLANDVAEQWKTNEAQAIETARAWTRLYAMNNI

Sequence of Paired box protein Pax-8 (Q06710 whole entry): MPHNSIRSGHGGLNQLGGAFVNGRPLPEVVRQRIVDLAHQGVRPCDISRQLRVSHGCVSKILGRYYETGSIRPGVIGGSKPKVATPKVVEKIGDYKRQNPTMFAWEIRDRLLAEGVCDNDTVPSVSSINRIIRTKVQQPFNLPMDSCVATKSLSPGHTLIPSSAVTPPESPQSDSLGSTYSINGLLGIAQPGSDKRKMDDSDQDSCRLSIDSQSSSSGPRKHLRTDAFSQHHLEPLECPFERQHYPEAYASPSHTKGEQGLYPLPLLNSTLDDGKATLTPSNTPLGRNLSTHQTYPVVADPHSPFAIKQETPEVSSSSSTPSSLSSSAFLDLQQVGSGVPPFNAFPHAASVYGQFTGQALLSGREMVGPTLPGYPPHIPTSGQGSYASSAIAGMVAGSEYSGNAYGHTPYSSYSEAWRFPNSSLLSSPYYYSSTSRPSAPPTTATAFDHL
Sequence of Cytochrome P450 2D6 (P10635 whole entry): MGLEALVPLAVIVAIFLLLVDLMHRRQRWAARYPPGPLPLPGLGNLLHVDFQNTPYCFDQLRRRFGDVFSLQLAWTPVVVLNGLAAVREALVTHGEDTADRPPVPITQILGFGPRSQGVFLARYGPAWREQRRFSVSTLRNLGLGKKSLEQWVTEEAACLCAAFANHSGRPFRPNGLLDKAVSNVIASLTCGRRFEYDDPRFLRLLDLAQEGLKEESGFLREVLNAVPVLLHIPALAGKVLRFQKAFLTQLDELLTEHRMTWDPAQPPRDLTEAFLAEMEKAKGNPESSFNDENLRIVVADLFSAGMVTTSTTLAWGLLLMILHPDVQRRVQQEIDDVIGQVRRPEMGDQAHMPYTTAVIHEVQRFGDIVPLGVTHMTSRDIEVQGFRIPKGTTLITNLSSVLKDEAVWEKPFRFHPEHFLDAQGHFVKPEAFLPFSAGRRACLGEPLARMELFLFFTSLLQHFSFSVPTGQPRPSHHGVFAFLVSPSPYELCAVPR
Sequence of Large T antigen (P03070 whole entry): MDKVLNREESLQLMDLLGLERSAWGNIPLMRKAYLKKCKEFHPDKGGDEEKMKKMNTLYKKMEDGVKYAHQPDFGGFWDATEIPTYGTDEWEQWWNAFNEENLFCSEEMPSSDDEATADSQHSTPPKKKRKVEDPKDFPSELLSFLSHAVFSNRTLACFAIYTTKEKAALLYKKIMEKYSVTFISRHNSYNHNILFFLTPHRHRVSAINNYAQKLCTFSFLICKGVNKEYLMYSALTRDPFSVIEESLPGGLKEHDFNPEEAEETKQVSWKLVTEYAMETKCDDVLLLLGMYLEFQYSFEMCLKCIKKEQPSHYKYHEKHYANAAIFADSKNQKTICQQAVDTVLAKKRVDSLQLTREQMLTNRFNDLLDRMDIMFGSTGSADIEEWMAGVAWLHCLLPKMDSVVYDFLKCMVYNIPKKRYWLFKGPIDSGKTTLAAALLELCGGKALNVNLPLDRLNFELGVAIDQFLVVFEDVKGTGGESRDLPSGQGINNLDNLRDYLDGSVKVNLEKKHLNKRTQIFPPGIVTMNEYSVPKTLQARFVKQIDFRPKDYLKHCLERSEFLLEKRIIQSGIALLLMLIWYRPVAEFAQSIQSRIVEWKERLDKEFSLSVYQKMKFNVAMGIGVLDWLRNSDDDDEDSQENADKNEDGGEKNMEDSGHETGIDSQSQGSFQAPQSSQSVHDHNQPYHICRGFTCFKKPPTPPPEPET
Sequence of Cytochrome P450 2C9 (P11712 whole entry): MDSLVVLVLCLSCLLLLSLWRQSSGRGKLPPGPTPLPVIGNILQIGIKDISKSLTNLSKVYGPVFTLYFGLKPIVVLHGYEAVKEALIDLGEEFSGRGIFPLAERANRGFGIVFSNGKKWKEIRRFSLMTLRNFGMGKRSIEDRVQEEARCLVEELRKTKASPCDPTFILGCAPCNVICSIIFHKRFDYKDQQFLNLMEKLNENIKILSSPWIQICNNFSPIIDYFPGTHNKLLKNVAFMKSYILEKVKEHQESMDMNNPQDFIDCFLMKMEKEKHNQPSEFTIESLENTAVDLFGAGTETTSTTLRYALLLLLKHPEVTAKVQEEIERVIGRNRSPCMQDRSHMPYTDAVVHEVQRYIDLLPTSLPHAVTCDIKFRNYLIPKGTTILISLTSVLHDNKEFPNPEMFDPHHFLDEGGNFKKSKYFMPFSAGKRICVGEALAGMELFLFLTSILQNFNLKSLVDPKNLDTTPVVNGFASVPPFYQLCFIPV

SMILES: C[C@H](CO)N1C[C@H](C)[C@H](CN(C)CC2CCCCC2)OCCCC[C@H](C)Oc2ccc(NC(=O)Nc3ccccc3)cc2C1=O
- AC50 (Paired box protein Pax-8): 14.2 µM (active)
- AC50 [1]: 25 µM (active)
- AC50 [2]: 38.2 µM (active)

SMILES: Cc1ccc(NC(=O)CN2C(=O)N/C(=C/c3ccco3)C2=O)cc1
- IC50 (Leucine aminopeptidase): 37.8 µM (active)

SMILES: Cc1ccc(S(=O)(=O)N2CC(C)N(C(=O)N3CCOCC3)C2C)cc1 (centres undefined)
- EC50 (cells [3]): > 350 µM (not active)
- EC50 (cells [4]): > 350 µM (not active)

SMILES: CCn1cc(C(=O)NCC(OC)OC)c(=O)c2cc(S(=O)(=O)N3CCC(C)CC3)ccc21
- CC50 [5]: 11.1 µM (active)
- EC50 (cells [3]): > 350 µM (not active)
- EC50 (cells [4]): > 350 µM (not active)

SMILES: CC1CN(C(c2ccco2)c2sc3ncnn3c2O)CC(C)O1 (centres undefined)
- IC50 [6]: > 47.1 µM (inactive)
- EC50 [7]: > 53 µM (inactive)

SMILES: Cc1ccnc(NS(=O)(=O)c2cc([N+](=O)[O-])ccc2C)c1
- EC50 (cells [3]): > 350 µM (not active)
- EC50 (cells [4]): > 350 µM (not active)

SMILES: Cc1cccc(NC(=O)CN2NS(=O)(=O)c3ccccc3C2=O)c1
- IC50 (Leucine aminopeptidase): 7.74 µM (active)

SMILES: CCN(CC)S(=O)(=O)c1cc(NS(=O)(=O)c2ccccc2)ccc1C
- IC50 [8]: > 50 µM (not active)

SMILES: CC(C)=CCSc1nnc([C@@H](N)Cc2c[nH]c3ccccc23)o1
- EC50 (cells [3]): > 350 µM (not active)
- EC50 (cells [4]): > 350 µM (not active)

SMILES: Cc1ccc(C(=O)CSc2ccc(-c3ccncc3)nn2)cc1
- EC50 (cells [3]): > 350 µM (not active)
- EC50 (cells [4]): > 350 µM (not active)

SMILES: O=C(CCCN1C(=O)/C(=C/c2cccc(Br)c2)SC1=S)Nc1cccnc1
- EC50 (BJ [9]): 3.12 µM (active)
- EC50 (BJ [10]): 25.3 µM (active)
- EC50 (BJ [11]): 17.2 µM (active)
- EC50 [12]: 9.68 µM (active)
- AC50 (Paired box protein Pax-8): 8.92 µM (active)

SMILES: O=C(CN1C(=O)c2ccccc2S1(=O)=O)Nc1ccccc1
- IC50 (Leucine aminopeptidase): 24.6 µM (active)
- AC50 (Cytochrome P450 2D6): 17.8 µM (inconclusive)
- AC50 (Cytochrome P450 2C9): 12.6 µM (inconclusive)

SMILES: C[C@H](CO)N1C[C@H](C)[C@H](CN(C)Cc2ccc(Cl)c(Cl)c2)OCCCC[C@H](C)Oc2ccc(NS(=O)(=O)c3ccc(F)cc3)cc2C1=O
- AC50 (Paired box protein Pax-8): 4.85 µM (active)
- AC50 [1]: 48.3 µM (active)

SMILES: O=C(CCN1C(=O)/C(=C/c2cccc(Br)c2)SC1=S)Nc1cccnc1
- EC50 (BJ [9]): 7.86 µM (inconclusive)
- EC50 (BJ [10]): > 150 µM (not active)
- EC50 (BJ [11]): > 150 µM (not active)
- EC50 [12]: 18.7 µM (active)

SMILES: CC1=NC(=S)NC(c2cccs2)/C1=C(\O)OCC(C)C (centres undefined)
- IC50 (Large T antigen): 51.4 µM (active)

SMILES: Nc1n[nH]c(N)c1N=Nc1cccc(F)c1
- IC50 (Leucine aminopeptidase): 5.51 µM (active)

SMILES: O=C(COC(=O)C1CCN(S(=O)(=O)c2ccccc2)CC1)NC(=O)c1ccc(OC(F)F)cc1
- IC50 [6]: > 47.1 µM (inactive)
- EC50 [7]: > 53 µM (inactive)

SMILES: O=C(O)C1CCCCC1C(=O)Nc1ccc(Cl)cc1Cl (centres undefined)
- IC50 (Leucine aminopeptidase): 14.3 µM (active)

SMILES: CC(C)Cn1cc(C(=O)NC2CCN(Cc3ccccc3)CC2)c2c3ccccc3n(C)c2c1=O
- IC50 [13]: > 20 µM (inactive)
